Where two headings read alike, the source gives them in different places.
Columns and labels:
Type in all cases: in vivo
[1] = test system: Frankliniella occidentalis; experiment: Insecticidal activity, spray on pre-infested radish plants: Frankliniella occidentalis; settings: Frankliniella occidentalis, 144 h, read-out: fatality rate on Frankliniella occidentalis
In short: (§1)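 First, 30-40 pests are transferred onto 12-15 day old radish plants on a cut leaf, and the soil is covered with sand. The compound solution is then sprayed and left to dry for 1 hour before a mesh cover is fitted. Insect mortality is read visually after 6 days at 25° C and 70% relative humidity.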

Cnaphalocrocis medinalis = experiment: Insecticidal activity, spray on pre-infested radish plants: Cnaphalocrocis medinalis; settings: 144 h, read-out: fatality rate on Cnaphalocrocis medinalis
In short: (§2)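 Mortality was assessed visually after 6 days at 25° C and 70% relative humidity, following spray application of the test compound to pre-infested 12-15 day old radish plants. Each test was run in triplicate.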

Plutella xylostella = experiment: Insecticidal activity, spray on pre-infested radish plants: Plutella xylostella; settings: Plutella xylostella, 144 h, read-out: fatality rate on Plutella xylostella
In short: as §1

Chilo suppressalis = experiment: Insecticidal activity, spray on pre-infested radish plants: Chilo suppressalis; settings: Chilo suppressalis, 144 h, read-out: fatality rate on Chilo suppressalis
In short: as §1

Pieris rapae = experiment: Insecticidal activity, spray on pre-infested radish plants: Pieris rapae; settings: 144 h, read-out: fatality rate on Pieris rapae
In short: as §2

Mythimna separata = experiment: Insecticidal activity, spray on pre-infested radish plants: Mythimna separata; settings: Mythimna separata, 144 h, read-out: fatality rate on Mythimna separata
In short: as §1

Spodoptera litura = experiment: Insecticidal activity, spray on pre-infested radish plants: Spodoptera litura; settings: 144 h, read-out: fatality rate on Spodoptera litura
In short: as §1

Tetranychus cinnabarinus = experiment: Acaricidal activity, slide immersion of female adult mites: Tetranychus cinnabarinus; settings: read-out: fatality rate on Tetranychus cinnabarinus
In short: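 Female adult mites stuck dorsally on tape on slides (4 rows of 10), dipped 5 s in test solution, excess blotted, incubated 24 h. Mites with immobile feet on brush touch scored dead; fatality rate calculated.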

[2] = dose 1 ppm, immersion 5 seconds, checked after 24 hours
[3] = dose 10 ppm, immersion 5 seconds, checked after 24 hours
[4] = dose 25 ppm, immersion 5 seconds, checked after 24 hours

Cc1cc(C2=NOC(c3cc(F)c(F)c(F)c3)(C(F)(F)F)C2)ccc1C(=O)NCCc1cnccc1C(F)(F)F (stereo not drawn) [Compound 18]
> 80%: pest or weed control at 1 ppm ([1]; dose 1 ppm, spray, 6 days) | pest or weed control at 10 ppm ([1]; dose 10 ppm, spray, 6 days) | pest or weed control at 25 ppm ([1]; dose 25 ppm, spray, 6 days) | pest or weed control at 0.1 ppm (Cnaphalocrocis medinalis; dose 0.1 ppm, spray, 6 days) | pest or weed control at 1 ppm (Cnaphalocrocis medinalis; dose 1 ppm, spray, 6 days) | pest or weed control at 10 ppm (Cnaphalocrocis medinalis; dose 10 ppm, spray, 6 days) | pest or weed control at 0.1 ppm (Plutella xylostella; dose 0.1 ppm, spray, 6 days) | pest or weed control at 1 ppm (Plutella xylostella; dose 1 ppm, spray, 6 days) | pest or weed control at 10 ppm (Plutella xylostella; dose 10 ppm, spray, 6 days) | pest or weed control at 0.1 ppm (Chilo suppressalis; dose 0.1 ppm, spray, 6 days) | pest or weed control at 1 ppm (Chilo suppressalis; dose 1 ppm, spray, 6 days) | pest or weed control at 10 ppm (Chilo suppressalis; dose 10 ppm, spray, 6 days) | pest or weed control at 0.1 ppm (Pieris rapae; dose 0.1 ppm, spray, 6 days) | pest or weed control at 1 ppm (Pieris rapae; dose 1 ppm, spray, 6 days) | pest or weed control at 10 ppm (Pieris rapae; dose 10 ppm, spray, 6 days) | pest or weed control at 0.1 ppm (Mythimna separata; dose 0.1 ppm, spray, 6 days) | pest or weed control at 1 ppm (Mythimna separata; dose 1 ppm, spray, 6 days) | pest or weed control at 10 ppm (Mythimna separata; dose 10 ppm, spray, 6 days) | pest or weed control at 0.1 ppm (Spodoptera litura; dose 0.1 ppm, spray, 6 days) | pest or weed control at 1 ppm (Spodoptera litura; dose 1 ppm, spray, 6 days) | pest or weed control at 10 ppm (Spodoptera litura; dose 10 ppm, spray, 6 days) | pest or weed control at 1 ppm (Tetranychus cinnabarinus; [2]) | pest or weed control at 10 ppm (Tetranychus cinnabarinus; [3]) | pest or weed control at 25 ppm (Tetranychus cinnabarinus; [4])

Cc1cc(C2=NOC(c3cc(Cl)c(F)c(Cl)c3)(C(F)(F)F)C2)ccc1C(=O)NCCc1ncc(C(F)(F)F)cc1Cl (stereo not drawn) [Compound 19]
> 80%: pest or weed control at 1 ppm [1] | pest or weed control at 10 ppm [1] | pest or weed control at 25 ppm [1] | pest or weed control at 0.1 ppm (Cnaphalocrocis medinalis) | pest or weed control at 1 ppm (Cnaphalocrocis medinalis) | pest or weed control at 10 ppm (Cnaphalocrocis medinalis) | pest or weed control at 0.1 ppm (Plutella xylostella) | pest or weed control at 1 ppm (Plutella xylostella) | pest or weed control at 10 ppm (Plutella xylostella) | pest or weed control at 0.1 ppm (Chilo suppressalis) | pest or weed control at 1 ppm (Chilo suppressalis) | pest or weed control at 10 ppm (Chilo suppressalis) | pest or weed control at 0.1 ppm (Pieris rapae) | pest or weed control at 1 ppm (Pieris rapae) | pest or weed control at 10 ppm (Pieris rapae) | pest or weed control at 0.1 ppm (Mythimna separata) | pest or weed control at 1 ppm (Mythimna separata) | pest or weed control at 10 ppm (Mythimna separata) | pest or weed control at 0.1 ppm (Spodoptera litura) | pest or weed control at 1 ppm (Spodoptera litura) | pest or weed control at 10 ppm (Spodoptera litura) | pest or weed control at 1 ppm (Tetranychus cinnabarinus; 24 h) | pest or weed control at 10 ppm (Tetranychus cinnabarinus; 24 h) | pest or weed control at 25 ppm (Tetranychus cinnabarinus; 24 h)

Cc1cc(C2=NOC(c3cc(F)c(F)c(F)c3)(C(F)(F)F)C2)ccc1C(=O)NCCc1ncc(C(F)(F)F)cc1Cl (stereo not drawn) [Compound 20]
> 80%: pest or weed control at 1 ppm ([1]; dose 1 ppm, spray, 6 days) | pest or weed control at 10 ppm ([1]; dose 10 ppm, spray, 6 days) | pest or weed control at 25 ppm ([1]; dose 25 ppm, spray, 6 days) | pest or weed control at 0.1 ppm (Cnaphalocrocis medinalis; dose 0.1 ppm, spray, 6 days) | pest or weed control at 1 ppm (Cnaphalocrocis medinalis; dose 1 ppm, spray, 6 days) | pest or weed control at 10 ppm (Cnaphalocrocis medinalis; dose 10 ppm, spray, 6 days) | pest or weed control at 0.1 ppm (Plutella xylostella; dose 0.1 ppm, spray, 6 days) | pest or weed control at 1 ppm (Plutella xylostella; dose 1 ppm, spray, 6 days) | pest or weed control at 10 ppm (Plutella xylostella; dose 10 ppm, spray, 6 days) | pest or weed control at 0.1 ppm (Chilo suppressalis; dose 0.1 ppm, spray, 6 days) | pest or weed control at 1 ppm (Chilo suppressalis; dose 1 ppm, spray, 6 days) | pest or weed control at 10 ppm (Chilo suppressalis; dose 10 ppm, spray, 6 days) | pest or weed control at 0.1 ppm (Pieris rapae; dose 0.1 ppm, spray, 6 days) | pest or weed control at 1 ppm (Pieris rapae; dose 1 ppm, spray, 6 days) | pest or weed control at 10 ppm (Pieris rapae; dose 10 ppm, spray, 6 days) | pest or weed control at 0.1 ppm (Mythimna separata; dose 0.1 ppm, spray, 6 days) | pest or weed control at 1 ppm (Mythimna separata; dose 1 ppm, spray, 6 days) | pest or weed control at 10 ppm (Mythimna separata; dose 10 ppm, spray, 6 days) | pest or weed control at 0.1 ppm (Spodoptera litura; dose 0.1 ppm, spray, 6 days) | pest or weed control at 1 ppm (Spodoptera litura; dose 1 ppm, spray, 6 days) | pest or weed control at 10 ppm (Spodoptera litura; dose 10 ppm, spray, 6 days) | pest or weed control at 1 ppm (Tetranychus cinnabarinus; [2]) | pest or weed control at 10 ppm (Tetranychus cinnabarinus; [3]) | pest or weed control at 25 ppm (Tetranychus cinnabarinus; [4])

Source: patent US12564193B2, “Isoxazoline-substituted benzamide derivative, and preparation method therefor and use thereof” (SHANDONG UNITED PESTICIDE INDUSTRY CO., LTD., priority 2020, dated 2026)
